From patent US10913753B2, “Thienopyridine carboxamides as ubiquitin-specific protease inhibitors” (FORMA Therapeutics, Inc., priority 2016, dated 2021)
pIC50: −log10 of the molar value.

Assays:
USP28 = USP28 (Homo sapiens (Human), UniProt Q96RU2); test: Ubiquitin-Rhodamine 110 Assay for USP28 Activity; format: biochemical
Description: The assay was performed in a final volume of 20 μL in assay buffer containing 20 mM Tris-HCl (pH 8.0, (1M Tris-HCl, pH 8.0 solution; Corning 46-031-CM)), 2 mM CaCl2 (1M Calcium Chloride solution; Sigma #21114) 2 mM BME (2-Mercaptoethanol; Sigma 63689-25ML -F), 0.01% Prionex (0.22 μM filtered, Sigma #G-0411), and 0.01% Triton X-100. Stock compound solutions were stored at −20° C. as 10 mM in DMSO. Up to 1 month prior to the assay, 2 mM test compounds were pre-dispensed into assay plates (Black, low volume; Corning #3820) and frozen at −20° C. Prestamped assay plates were allowed to come to room temperature on the day of the assay. For the screen, 100 nL of 2 mM was pre-dispensed for a final screening concentration of 10 μM (DMSO(fc)=0.5%). […] Plates were incubated stacked for 90 minutes at room temperature before fluorescence was read on the Envision (Excitation at 485 nm and Emission at 535 nm; Perkin Elmer) or on the PheraSTAR (Excitation at 485 nm and Emission at 535 nm; BMG Labtech).
For follow-up studies, the assay was performed in a final volume of 15 μL in assay buffer containing 20 mM Tris-HCl (pH 8.0, (1M Tris-HCl, pH 8.0 solution; Corning 46-031-CM)), 3 mM BME (2-Mercaptoethanol; Sigma 63689-25ML-F), 0.03% BGG (0.22 μM filtered, Sigma, G7516-25G), and 0.01% Triton X-100 (Sigma, T9284-10L). Nanoliter quantities of either an 8-point or 10-point, 3-fold serial dilution in DMSO was pre-dispensed into assay plates (Perkin Elmer, ProxiPlate-384 F Plus) for a final test concentration of either 25 μM to 11 nM or 25 μM to 1.3 nM, respectively. Enzyme USP28, construct USP28 (USP28-5(1-1077)-TEV-6*His; LifeSensors) concentration and incubation times were optimized for the maximal signal-to -background while maintaining initial velocity conditions at a fixed substrate concentration. The final concentration of the enzyme in the assay was 75 pM. […] 5 μL of 2× enzyme was added to assay plates (pre-stamped with compound) preincubated with USP28 for 30 minutes and then 5 μL of 2× Ub-Rh110 was added to assay plates. Plates were incubated stacked for 20 min at room temperature before 5 μL of stop solution was added (final concentration of 10 mM citric acid (Sigma, 251275-500G)). Fluorescence was read on the Envision (Excitation at 485 nm and Emission at 535 nm; Perkin Elmer) or on the PheraSTAR (Excitation at 485 nm and Emission at 535 nm; BMG Labtech).
(§1) For both the USP28 and USP25 assay formats, data were reported as percent inhibition compared with control wells based on the following equation: % inh=1-((FLU-AveLow)/(AveHigh−AveLow)) where FLU=measured Fluorescence, AveLow=average Fluorescence of no enzyme control (n=16), and AveHigh=average Fluorescence of DMSO control (n=16). IC50 values were determined by curve fitting of the standard 4 parameter logistic fitting algorithm included in the Activity Base software package: IDBS XE Designer Model205. Data is fitted using the Levenburg Marquardt algorithm.

USP25 = USP25 (Homo sapiens (Human), UniProt Q9UHP3); test: Ubiquitin-Rhodamine 110 Assay for USP25 Activity; format: biochemical
Chain of USP25 (Q9UHP3 whole entry): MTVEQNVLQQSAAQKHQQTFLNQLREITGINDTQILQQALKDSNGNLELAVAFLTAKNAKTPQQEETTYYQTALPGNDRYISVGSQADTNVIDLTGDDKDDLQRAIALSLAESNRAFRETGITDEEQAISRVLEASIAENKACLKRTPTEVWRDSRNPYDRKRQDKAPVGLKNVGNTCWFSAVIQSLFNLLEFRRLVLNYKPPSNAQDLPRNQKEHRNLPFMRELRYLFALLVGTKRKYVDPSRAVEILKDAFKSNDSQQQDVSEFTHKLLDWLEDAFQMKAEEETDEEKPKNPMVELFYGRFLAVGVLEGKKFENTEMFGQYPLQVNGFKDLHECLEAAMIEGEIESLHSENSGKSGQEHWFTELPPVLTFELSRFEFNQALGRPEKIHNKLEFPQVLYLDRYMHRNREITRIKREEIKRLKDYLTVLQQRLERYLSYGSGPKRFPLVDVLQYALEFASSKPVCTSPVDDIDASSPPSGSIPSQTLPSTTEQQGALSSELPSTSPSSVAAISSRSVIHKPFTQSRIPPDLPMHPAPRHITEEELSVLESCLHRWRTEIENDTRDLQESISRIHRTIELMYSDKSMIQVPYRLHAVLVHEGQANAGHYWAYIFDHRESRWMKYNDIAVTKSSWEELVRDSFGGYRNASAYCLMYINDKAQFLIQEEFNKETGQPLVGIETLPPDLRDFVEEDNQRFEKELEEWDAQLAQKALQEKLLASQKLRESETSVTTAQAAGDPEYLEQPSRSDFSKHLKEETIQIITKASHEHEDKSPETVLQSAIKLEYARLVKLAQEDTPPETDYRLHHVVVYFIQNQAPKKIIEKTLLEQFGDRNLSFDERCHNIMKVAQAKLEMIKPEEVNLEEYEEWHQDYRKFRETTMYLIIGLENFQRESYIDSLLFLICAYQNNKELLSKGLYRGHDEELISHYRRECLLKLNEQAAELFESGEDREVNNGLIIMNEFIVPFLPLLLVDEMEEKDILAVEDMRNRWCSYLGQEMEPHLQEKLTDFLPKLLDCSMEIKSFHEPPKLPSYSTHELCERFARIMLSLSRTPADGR
Description: The assay was performed in a final volume of 9 μL in assay buffer containing 20 mM Tris-HCl (pH 8.0, (1M Tris-HC1, pH 8.0 solution; Corning 46-031-CM)), 3 mM BME (2-Mercaptoethanol; Sigma 63689-25ML-F), 0.03% BGG (0.22 μM filtered, Sigma, G7516-25G), and 0.01% Triton X-100 (Sigma, T9284-10L). Nanoliter quantities of 10-point, 3-fold serial dilution in DMSO was pre-dispensed into 1536 assay plates (Corning, #3724BC) for a final test concentration of 25 μM to 1.3 nM, top to lowest dose, respectively. Enzyme USP25, construct USP25-His6, (Boston Biochem E-546). Concentration and incubation times were optimized for the maximal signal-to-background while maintaining initial velocity conditions at a fixed substrate concentration. The final concentration of the enzyme in the assay was 75 pM. […] 3 μL of 2× enzyme was added to assay plates (pre-stamped with compound) preincubated with […] for 30 minutes and then 3 μL of 2× Ub-Rh110 was added to assay plates. Plates were incubated for 45 minutes at room temperature before addition of 3 μL of stop solution (final concentration of 10 mM citric acid (Sigma, 251275-500G)). Fluorescence was read on the Envision (Excitation at 485 nm and Emission at 535 nm; Perkin Elmer) or on the PheraSTAR (Excitation at 485 nm and Emission at 535 nm; BMG Labtech).
as §1

Chain of USP28 (Q96RU2 whole entry): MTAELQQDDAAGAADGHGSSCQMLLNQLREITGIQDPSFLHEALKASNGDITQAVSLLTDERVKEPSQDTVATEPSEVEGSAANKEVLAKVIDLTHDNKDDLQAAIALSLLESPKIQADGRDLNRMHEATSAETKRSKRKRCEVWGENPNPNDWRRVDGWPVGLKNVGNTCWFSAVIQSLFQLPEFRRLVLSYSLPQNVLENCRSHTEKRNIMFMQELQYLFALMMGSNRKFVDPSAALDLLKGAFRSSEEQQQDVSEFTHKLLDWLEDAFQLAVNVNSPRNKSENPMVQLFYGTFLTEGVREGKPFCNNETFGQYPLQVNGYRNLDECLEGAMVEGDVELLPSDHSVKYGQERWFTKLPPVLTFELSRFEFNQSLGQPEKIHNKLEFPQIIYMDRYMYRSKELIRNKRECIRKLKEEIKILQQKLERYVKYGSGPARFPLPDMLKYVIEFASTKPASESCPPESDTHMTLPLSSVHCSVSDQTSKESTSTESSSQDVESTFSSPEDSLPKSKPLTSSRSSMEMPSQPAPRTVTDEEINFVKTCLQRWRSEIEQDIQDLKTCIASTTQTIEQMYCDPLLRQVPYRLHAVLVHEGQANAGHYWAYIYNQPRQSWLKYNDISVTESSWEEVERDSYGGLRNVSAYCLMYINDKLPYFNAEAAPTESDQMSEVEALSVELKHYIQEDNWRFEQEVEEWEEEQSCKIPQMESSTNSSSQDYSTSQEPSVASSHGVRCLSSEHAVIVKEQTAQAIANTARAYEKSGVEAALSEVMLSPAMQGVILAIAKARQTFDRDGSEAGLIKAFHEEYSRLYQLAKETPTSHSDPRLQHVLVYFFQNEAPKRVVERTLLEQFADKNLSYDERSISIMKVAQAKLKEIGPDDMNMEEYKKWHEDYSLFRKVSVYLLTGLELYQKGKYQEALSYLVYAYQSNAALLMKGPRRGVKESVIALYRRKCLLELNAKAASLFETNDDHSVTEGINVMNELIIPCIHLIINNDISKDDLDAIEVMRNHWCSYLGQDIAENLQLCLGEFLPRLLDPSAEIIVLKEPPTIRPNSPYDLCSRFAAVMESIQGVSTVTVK

SMILES	pIC50 (USP28)	pIC50 (USP25)
CCN[C@@H]1CCN(c2ccc(CCNC(=O)c3sc4nc(C)ccc4c3N)cc2)C1 [Example I-200, (R)-3-amino-N-(4-(3-(ethylamino)pyrrolidin-1-yl)phenethyl)-6-methylthieno[2,3-b]pyridine-2-carboxamide]	5.70 to 6.70	5.70 to 6.70
CCc1cc(CCNC(=O)c2sc3nc(C)ccc3c2N)ccc1N1CC2CCC(C1)N2 [Compound I-44]	> 6.70	> 6.70
CN[C@@H]1CCN(c2ccc(CCNC(=O)c3sc4nc(C)ccc4c3N)cc2Cl)C1 [Example I-85]	5.70 to 6.70	5.70 to 6.70
Cc1ccc2c(N)c(C(=O)NCCc3ccc(N4CCNCC4)cc3F)sc2n1 [Compound I-5]	5.70 to 6.70	5.70 to 6.70
Cc1ccc2c(N)c(C(=O)NCCc3cc(F)c(N4CCN[C@@H](C)C4)cc3F)sc2n1 [Compound I-210]	5.70 to 6.70	5.00 to 5.70
Nc1ccc2c(N)c(C(=O)NCCc3ccc(N4CCNCC4)cc3)sc2n1 [Example I-184]	5.70 to 6.70	5.70 to 6.70
CN(C)c1ccc2c(N)c(C(=O)NCCc3ccc(N4CCNCC4)cc3)sc2n1 [Example I-186, 3-Amino-6-(dimethylamino)-N-(4-(piperazin-1-yl)phenethyl)thieno[2,3-b]pyridine-2-carboxamide]	5.00 to 5.70	4.60 to 5.00
Cc1ccc2c(N)c(C(=O)NCCc3ccc(N4CCNCC4)c(F)c3F)sc2n1 [Example I-84]	5.70 to 6.70	5.70 to 6.70
Cc1ccc2c(N)c(C(=O)NCCc3ccc(C4CCNCC4)c(F)c3)sc2n1 [Example I-169, 3-Amino-N-(3-fluoro-4-(piperidin-4-yl)phenethyl)-6-methylthieno[2,3-b]pyridine-2-carboxamide]	> 6.70	5.70 to 6.70
Cc1ccc2c(N)c(C(=O)NCCc3ccc(-n4ncc5c4CNC5)cc3)sc2n1 [Compound I-38]	5.70 to 6.70	5.00 to 5.70
Cc1ccc2c(N)c(C(=O)N[C@H]3C[C@H](c4ccc(N5CCNCC5)cc4)C3)sc2n1 [Example I-92, trans-3-amino-6-methyl-N-(3-(4-(piperazin-1-yl)phenyl)cyclobutyl)thieno[2,3-b]pyridine-2-carboxamide]	5.70 to 6.70	5.70 to 6.70
Cc1cc(C(F)F)nc2sc(C(=O)NCCc3ccc(N4CCNCC4)cc3)c(N)c12 [Compound I-62]	> 6.70	> 6.70
Cc1ccc2c(N)c(C(=O)NCCc3cc(F)c(NC4CNC4)cc3F)sc2n1 [Compound I-70]	> 6.70	5.70 to 6.70
Cc1ccc2c(N)c(C(=O)NCCc3ccc(N4CCN(C5CCC5)CC4)cc3)sc2n1 [Example I-75]	5.70 to 6.70	5.70 to 6.70
Cc1ccc2c(N)c(C(=O)NCCc3ccc(C4CCNCC4)cc3)sc2n1 [Compound I-13]	> 6.70	5.70 to 6.70
Cc1nc2sc(C(=O)NCCc3ccc(N4CCNCC4)cc3)c(N)c2cc1N [Example I-198, 3,5-Diamino-6-methyl-N-(4-(piperazin-1-yl)phenethyl)thieno[2,3-b]pyridine-2-carboxamide]	5.00 to 5.70	4.60 to 5.00
Nc1c(C(=O)NCCc2ccc(N3CCNCC3)cc2)sc2nc(OC(F)F)ccc12 [Example I-193, 3-Amino-6-(difluoromethoxy)-N-(4-(piperazin-1-yl)phenethyl)thieno[2,3-b]pyridine-2-carboxamide]	> 6.70	5.70 to 6.70
Cc1ccc2c(N)c(C(=O)NCCc3ccc(N4CC[C@H]5NCC[C@H]54)cc3)sc2n1 (single isomer, unassigned) [Example I-94]	5.70 to 6.70	5.70 to 6.70

SMILES	pIC50 (USP28)	pIC50 (USP25)
COc1cc(N2CCNCC2)ccc1CCNC(=O)c1sc2nc(C)ccc2c1N [Compound I-2]	> 6.70	> 6.70
Cc1ccc2c(N)c(C(=O)NCCc3cccc(CC(=O)O)c3)sc2n1 [Example I-178]	5.00 to 5.70	5.00 to 5.70
Cc1ccc2c(N)c(C(=O)NCCc3cc(F)c(N4C[C@@H]5CCN[C@@H]5C4)cc3F)sc2n1 [Example I-95]	> 6.70	5.70 to 6.70
C[C@@H](O)c1ccc2c(N)c(C(=O)NCCc3ccc(N4CCNCC4)cc3)sc2n1 (single isomer, unassigned) [Example I-222]	5.70 to 6.70	5.70 to 6.70
Cc1ccc2c(N)c(C(=O)NCCc3ccc(N4CC[C@@H]5NCC[C@@H]54)cc3)sc2n1 (single isomer, unassigned) [Example I-93]	> 6.70	> 6.70
Cc1ccc2c(N)c(C(=O)NCCc3ccc(N4CCNCC4)c(Cl)c3)sc2n1 [Example I-77]	5.70 to 6.70	5.70 to 6.70
N#Cc1ccc2c(N)c(C(=O)NCCc3cc(F)c(N4CCNCC4)cc3F)sc2n1 [Example I-220, 3-Amino-6-cyano-N-(2,5-difluoro-4-(piperazin-1-yl)phenethyl)thieno[2,3-b]pyridine-2-carboxamide]	5.00 to 5.70	5.00 to 5.70
Cc1ccc2c(N)c(C(=O)NCCc3ccc(N4CC5CCC(C4)N5)cc3C#N)sc2n1 [Compound I-36]	> 6.70	5.70 to 6.70
CN1CCN(c2ccc(CCNC(=O)c3sc4nc(Cl)ccc4c3N)cc2)CC1 [Compound I-59]	5.70 to 6.70	5.70 to 6.70
Cc1ccc2c(N)c(C(=O)NCCc3cc(F)c(N4CCNCC4)cc3F)sc2n1 [Example I-11, 3-Amino-N-(2,5-difluoro-4-(piperazin-1-yl)phenethyl)-6-methylthieno[2,3-b]pyridine-2-carboxamide]	5.70 to 6.70	5.70 to 6.70
CCc1cc(CCNC(=O)c2sc3nc(C)ccc3c2N)ccc1N1CCNCC1 [Example I-78]	> 6.70	5.70 to 6.70
Cc1ccc2c(N)c(C(=O)NCCc3ccc(N4CCNCC4)c(-c4ccccn4)c3)sc2n1 [Example I-168, 3-Amino-6-methyl-N-(4-(piperazin-1-yl)-3-(pyridin-2-yl)phenethyl)thieno[2,3-b]pyridine-2-carboxamide]	5.00 to 5.70	4.60 to 5.00
Cc1nc2sc(C(=O)NCCc3ccc(N4CCNCC4)cc3)c(N)c2cc1C1CC1 [Example I-197, 3-Amino-5-cyclopropyl-6-methyl-N-(4-(piperazin-1-yl)phenethyl)thieno[2,3-b]pyridine-2-carboxamide]	5.00 to 5.70	4.60 to 5.00
Cc1ccc2c(N)c(C(=O)NCCc3ccc(N4CCN(CC5CCO5)CC4)cc3)sc2n1 (stereo not shown) [Compound I-25]	5.70 to 6.70	5.00 to 5.70
Cc1ccc2c(N)c(C(=O)NCCc3ccc4c(c3)CNCC4)sc2n1 [Example I-90]	5.70 to 6.70	5.70 to 6.70
Cc1ccc2c(N)c(C(=O)NCCc3cccc(C(=O)O)c3)sc2n1 [Example I-175]	5.00 to 5.70	5.00 to 5.70
Cc1ccc2c(N)c(C(=O)NCCc3cc(F)c(N4C[C@@H]5C[C@H]4CN5)cc3F)sc2n1 [Compound I-52]	> 6.70	5.70 to 6.70
